The source of these data is patent publication US11596611B2, “Hepatitis B antiviral agents” (ENANTA PHARMACEUTICALS, INC., priority 2017, dated 2023).

By EC50 is commonly meant the concentration at which the effect is half-maximal.

One experiment has as its system HBV. Description: HepAD38 antiviral assay: reduction of viral product accumulation (virion DNA by qPCR, HBsAg or HBeAg by ELISA). It is filed as cell-based, hepatitis B virus. To be noted: Hepatitis B virus, 120 h; HepAD38 cells, five days after compound addition; 50% reduction of viral product vs no drug controls; read-out: HepAD38 EC50. Here is the method: Methods: HepAD38 cells are maintained as previously reported (Ladner et al, Antimicrob. Agents Chemother. 1997, […], 1715). Briefly, cells are passaged upon attaining confluency in DMEM/F12 media in the presence of 10% FBS, Penn/Strep, 250 μg/mL G418, and 1 ug/ml tetracycline. Novel compounds are screened by first washing cells three times with PBS to remove tetracycline, and plating in 96 well plates at 35,000 cells/well. Compounds dissolved in DMSO are then diluted 1:200 into wells containing cells. Five days after compound addition, material is harvested for analysis. For an extended 8 days analysis, cells are plated and treated as described above, but media and compound are refreshed on d2 and d5 post initial treatment.
On harvest day, virion DNA is obtained by lysing with Sidestep Lysis and Stabilization Buffer and then quantified via quantitative real time PCR. Commercially available ELISA kits are used to quantitate the viral proteins HBsAg (Alpco) or HbeAg (US Biological) by following the manufacturer's recommended protocol after diluting samples to match the linear range of their respective assays.
In general terms: Real-time PCR tracks product formation cycle by cycle.
Regarding `CC(O)C[C@]1(O)CC[C@@H](CS(=O)(=O)c2cc(C(=O)Nc3ccc(F)c(F)c3)ccc2Cl)CC1` (stereo partly drawn) [Example 224], the EC50 fell in the range of 0.1 to 0.2 µM.
On the same count and under the same terms, next, `CC(=O)C[C@]1(O)CC[C@@H](CS(=O)(=O)c2cc(C(=O)Nc3ccc(F)c(F)c3)ccc2Cl)CC1` [Example 223]: 0.1 to 0.2 µM.
Still for that read-out and setting: next, `CC(C)(C1CCC2(CC1)OCCO2)S(=O)(=O)c1cc(C(=O)Nc2ccc(F)c(F)c2)ccc1Cl` [Example 231]: more than 0.2 µM.
For `O=C(Nc1cc(F)c(F)c(F)c1)c1ccc(Cl)c(S(=O)(=O)[C@H]2CC3CCC(C2)[C@]3(O)CNC(=O)C2CCOC2)c1` (stereo partly drawn) [Example 87], the EC50 is less than 0.104 µM.
Same read-out and setting: next, `COC(=O)N1C[C@H](O)C[C@H]1C(=O)NC[C@]1(O)C2CCC1C[C@@H](S(=O)(=O)c1cc(C(=O)Nc3cc(F)c(F)c(F)c3)ccc1Cl)C2` [Example 8]: more than 0.2 µM.
Still for that read-out and setting: next, `O=C(Nc1ccc(F)c(F)c1)c1ccc(Cl)c(S(=O)(=O)[C@@H]2CC3CC[C@@H](C2)[C@@]3(O)C(O)c2cccc(C(F)F)n2)c1` (stereo partly drawn) [Example 350]: less than 0.104 µM; `CC(=O)C[C@]1(O)CC[C@H](CS(=O)(=O)c2cc(C(=O)Nc3ccc(F)c(F)c3)ccc2Cl)CC1` [Example 222]: 0.1 to 0.2 µM.
On the same count and under the same terms, next, `COC(=O)N[C@H](C)C(=O)NC[C@]1(O)C2CCC1C[C@@H](S(=O)(=O)c1cc(C(=O)Nc3cc(F)c(F)c(F)c3)ccc1Cl)C2` [Example 86]: less than 0.104 µM.
`COC(=O)CCNC(=O)CC1(O)CC(S(=O)(=O)c2cc(C(=O)Nc3ccc(F)c(F)c3)ccc2Cl)C1` (stereo not drawn) [Example 248]: the EC50 is more than 0.2 µM.
Regarding `O=C(Nc1ccc(F)c(F)c1)c1ccc(Cl)c(S(=O)(=O)[C@@H]2CC3C[C@H](O)C(C2)[C@@]3(O)CO)c1` (stereo partly drawn) [Example 327], the EC50 was 0.1 to 0.2 µM.
Still for that read-out and setting: next, `C[C@@H](O)COCC1(O)CCC(CS(=O)(=O)c2cc(C(=O)Nc3ccc(F)c(F)c3)ccc2Cl)CC1` (stereo partly drawn) [Example 197]: more than 0.2 µM; `O=C[C@]1(O)C2CCC1C[C@@H](S(=O)(=O)c1cc(C(=O)Nc3ccc(F)c(F)c3)ccc1Cl)C2` [Example 203]: less than 0.104 µM; `C[C@]1(O)C2CCC1C[C@@H](S(=O)(=O)c1cc(C(=O)Nc3ccncn3)ccc1Cl)C2` [Example 221]: more than 0.2 µM.
Regarding `O=C(Nc1ccc(F)c(F)c1)c1ccc(Cl)c(S(=O)(=O)CC2CC(O)(C(O)CO)C2)c1` (stereo not drawn) [Example 207], the 50% effective concentration (EC50) was more than 0.2 µM.
The same measure, in the same setting: next, `O=C(Nc1ccc(F)c(F)c1)c1ccc(Cl)c(S(=O)(=O)[C@H]2CC3CCC(C2)[C@]3(O)C(O)C(O)CN2CCCS2(=O)=O)c1` (stereo partly drawn) [Example 320]: less than 0.104 µM; `O=C(Nc1cc(F)c(F)c(F)c1)c1ccc(Cl)c(S(=O)(=O)[C@@H]2CC3CC[C@@H](C2)[C@@]3(O)CNC(=O)[C@@H]2C[C@@H](O)[C@@H](O)C2)c1` [Example 24]: more than 0.2 µM; `CC(C)([C@H]1CC[C@](C)(O)CC1)S(=O)(=O)c1cc(C(=O)Nc2ccc(F)c(F)c2)ccc1Cl` [Example 238]: more than 0.2 µM.
Same read-out and setting: next, `COC(=O)N[C@@H](CO)C(=O)NC[C@]1(O)C2CCC1C[C@@H](S(=O)(=O)c1cc(C(=O)Nc3cc(F)c(F)c(F)c3)ccc1Cl)C2` [Example 49]: more than 0.2 µM.
The same measure, in the same setting: under `COC(=O)[C@H]1C[C@H](S(=O)(=O)c2cc(C(=O)Nc3ccc(F)c(F)c3)ccc2Cl)C1` [Example 250a] stands more than 0.2 µM.
Take `C[C@]1(O)C2CCC1C[C@@H](S(=O)(=O)c1cc(C(=O)Nc3ccc(F)c(Br)c3)ccc1Cl)C2` [Example 30]: the EC50 was less than 0.104 µM.
As to `CC(C)(C)OC(=O)N1CC[C@H](O)[C@H]1C(=O)NC[C@@]1(O)C2CC[C@H]1C[C@H](S(=O)(=O)c1cc(C(=O)Nc3cc(F)c(F)c(F)c3)ccc1Cl)C2` [Example 77], the EC50 was more than 0.2 µM.
As for `C[C@H](O)COCC1(O)CC(CS(=O)(=O)c2cc(C(=O)Nc3ccc(F)c(F)c3)ccc2Cl)C1` (stereo partly drawn) [Example 208], the EC50 was more than 0.2 µM.
The same measure, in the same setting: under `O=C(Nc1ccc(F)c(F)c1)c1ccc(Cl)c(S(=O)(=O)[C@H]2CC3CCC(C2)[C@]3(O)C(O)c2ccccn2)c1` (stereo partly drawn) [Example 284] stands less than 0.104 µM; under `C[C@@H](CO)NC(=O)[C@H]1C[C@@H](S(=O)(=O)c2cc(C(=O)Nc3ccc(F)c(F)c3)ccc2Cl)C1` [Example 256b], more than 0.2 µM.
Same read-out and setting: next, `O=C(Nc1ccc(F)c(F)c1)c1ccc(Cl)c(S(=O)(=O)[C@H]2CC3CCC(C2)[C@]3(O)[C@@H](O)c2ccc(F)cn2)c1` (single isomer, unassigned) [Example 291a]: less than 0.104 µM; `C[C@]1(O)C2CCC1C[C@@H](S(=O)(=O)c1cc(C(=O)Nc3ccc(F)c(CO)c3)ccc1Cl)C2` [Example 166]: less than 0.104 µM.
On the same count and under the same terms, under `Cc1ccc(NC(=O)c2ccc(Cl)c(S(=O)(=O)[C@H]3CC4CCC(C3)[C@@]4(C)O)c2)cc1F` [Example 44] stands more than 0.2 µM; under `COCC(COC)OC[C@]1(O)C2CCC1C[C@@H](S(=O)(=O)c1cc(C(=O)Nc3cc(F)c(F)c(F)c3)ccc1Cl)C2` [Example 121], less than 0.104 µM.
In the case of `C[C@H](O)CC(=O)NC[C@]1(O)C2CCC1C[C@@H](S(=O)(=O)c1cc(C(=O)Nc3ccc(F)c(F)c3)ccc1Cl)C2` [Example 169], the EC50 fell in the range of 0.1 to 0.2 µM.
Still for that read-out and setting: next, `O=C(Nc1cc(F)c(F)c(F)c1)c1ccc(Cl)c(S(=O)(=O)[C@@H]2CC3CC[C@@H](C2)[C@@]3(O)CNC(=O)[C@H]2OCC(O)[C@@H]2O)c1` (stereo partly drawn) [Example 29]: more than 0.2 µM.
In the case of `Cc1ccc(C(O)[C@]2(O)C3CCC2C[C@@H](S(=O)(=O)c2cc(C(=O)Nc4ccc(F)c(F)c4)ccc2Cl)C3)nc1` (stereo partly drawn) [Example 293], the EC50 was less than 0.104 µM.
In the case of `C[C@]1(O)C2CCC1C[C@@H](S(=O)(=O)c1cc(C(=O)Nc3ccc(F)c(F)c3)c(-c3nccs3)cc1Cl)C2` [Example 157], the EC50 is less than 0.104 µM.
The same measure, in the same setting: under `O=C1CC[C@H](C(=O)NC[C@@]2(O)C3CC[C@H]2C[C@H](S(=O)(=O)c2cc(C(=O)Nc4cc(F)c(F)c(F)c4)ccc2Cl)C3)N1` [Example 128] stands more than 0.2 µM.
On the same count and under the same terms, under `COC(=O)N[C@H](C(=O)NC[C@]1(O)C2CCC1C[C@@H](S(=O)(=O)c1cc(C(=O)Nc3cc(F)c(F)c(F)c3)ccc1Cl)C2)C(C)C` [Example 50] stands less than 0.104 µM; under `CC(O)C[C@]1(O)CC[C@H](CS(=O)(=O)c2cc(C(=O)Nc3ccc(F)c(F)c3)ccc2Cl)CC1` (stereo partly drawn) [Example 225], 0.1 to 0.2 µM.
The same measure, in the same setting: next, `O=C(Nc1ccc(F)c(F)c1)c1ccc(Cl)c(S(=O)(=O)[C@@H]2CC3CC[C@@H](C2)[C@@]3(O)C(O)c2ccc3ccccc3n2)c1` (stereo partly drawn) [Example 301]: less than 0.104 µM; `O=C(Nc1ccc(F)c(F)c1)c1ccc(Cl)c(S(=O)(=O)CC2CC=CCC2)c1` (stereo not drawn) [Example 227]: more than 0.2 µM.
As to `O=C(Nc1cc(F)c(F)c(F)c1)c1ccc(Cl)c(S(=O)(=O)[C@H]2CC3CCC(C2)[C@]3(O)COC[C@H](O)C(O)CO)c1` (stereo partly drawn) [Example 60], the EC50 was in the range of 0.1 to 0.2 µM.
As to `NC(=O)C[C@H](N)C(=O)NC[C@]1(O)C2CCC1C[C@@H](S(=O)(=O)c1cc(C(=O)Nc3cc(F)c(F)c(F)c3)ccc1Cl)C2` [Example 27], the concentration for a half-maximal effect (EC50) was more than 0.2 µM.
The same measure, in the same setting: next, `O=C(Nc1ccc(F)c(F)c1)c1ccc(Cl)c(S(=O)(=O)[C@@H]2CC3C[C@@H](O)C(C2)[C@@]3(O)CO)c1` (stereo partly drawn) [Example 328]: 0.1 to 0.2 µM; `O=C(Nc1ccc(F)c(F)c1)c1ccc(Cl)c(S(=O)(=O)[C@H]2CC3CC[C@@H](C2)[C@@]3(O)C(O)CN2CCOC2=O)c1` (stereo partly drawn) [Example 312]: more than 0.2 µM.
Same read-out and setting: under `CC1(C)O[C@H]2[C@H](CO[C@@H]2C(=O)NC[C@@]2(O)C3CC[C@H]2C[C@H](S(=O)(=O)c2cc(C(=O)Nc4cc(F)c(F)c(F)c4)ccc2Cl)C3)O1` [Example 28] stands less than 0.104 µM; under `O=C(Nc1ccc(F)c(F)c1)c1ccc(Cl)c(S(=O)(=O)[C@H]2CC3CCC(C2)[C@]3(O)C(O)CO)c1` (mixture of isomers) [Example 82], less than 0.104 µM; under `O=C(Nc1cc(F)c(F)c(F)c1)c1ccc(Cl)c(S(=O)(=O)[C@H]2CC3CCC(C2)[C@]3(O)CNC(=O)C2CCC(O)C(O)C2)c1` (single isomer, unassigned) [Example 19], more than 0.2 µM.
The same measure, in the same setting: under `CC(C)(O)/C=C\[C@]1(O)C2CCC1C[C@@H](S(=O)(=O)c1cc(C(=O)Nc3cc(F)c(F)c(F)c3)ccc1Cl)C2` [Example 21] stands less than 0.104 µM; under `C[C@H](O)[C@H](O)[C@]1(O)C2CCC1C[C@@H](S(=O)(=O)c1cc(C(=O)Nc3ccc(F)c(F)c3)ccc1Cl)C2` (single isomer, unassigned) [Example 181], less than 0.104 µM.
For `CC(C)(O)C(O)CNC(=O)[C@@]1(O)C2CC[C@H]1C[C@H](S(=O)(=O)c1cc(C(=O)Nc3cc(F)c(F)c(F)c3)ccc1Cl)C2` (stereo partly drawn) [Example 148], the EC50 fell in the range of 0.1 to 0.2 µM.
Same read-out and setting: under `O=C(C[C@]1(O)C2CCC1C[C@@H](S(=O)(=O)c1cc(C(=O)Nc3ccc(F)c(F)c3)ccc1Cl)C2)NCCO` [Example 184] stands less than 0.104 µM; under `O=C1N[C@H](C(=O)NC[C@]2(O)C3CCC2C[C@@H](S(=O)(=O)c2cc(C(=O)Nc4cc(F)c(F)c(F)c4)ccc2Cl)C3)CO1` [Example 85], more than 0.2 µM.
On the same count and under the same terms, under `O=C(Nc1cc(F)c(F)c(F)c1)c1ccc(Cl)c(S(=O)(=O)[C@H]2CC3CCC(C2)[C@]3(O)CNC(=O)[C@H]2CCCO2)c1` [Example 15] stands less than 0.104 µM.

Still in this experiment, the particulars now being: Hepatitis B virus, HePAD38, 120 h, read-out: HepAD38 EC50 (μM).
With `O=C(Nc1cc(F)c(F)c(F)c1)c1ccc(Cl)c(S(=O)(=O)[C@@H]2CC3CC[C@@H](C2)N3C[C@H](O)CO)c1` [Example 153], the EC50 lay within 0.1 to 0.2 µM.
